Laboratory results taken from BindingDB's records for doi:10.1016/j.bmcl.2012.03.007 (Bristol-Myers Squibb, 2012).

assay: Antagonist activity at CCR2 in human PBMC assessed as inhibition of MCP1-induced chemotaxis

SMILES	IC50 [nM]
CCC[C@H](O)[C@H](CNCc1ccc(C)cc1C)NC(=O)CNC(=O)c1cc(N)cc(C(F)(F)F)c1	20
CCC[C@H](O)[C@H](CNCc1ccc(C)cc1C)NC(=O)CNC(=O)c1cc(C(F)(F)F)ccc1N	32
CCC[C@H](O)[C@H](CNCc1ccc(C)cc1C)NC(=O)CNC(=O)c1cc(C(F)(F)F)ccc1NC(=O)OC(C)(C)C	17
CCC[C@H](O)[C@H](CNCc1ccc(C)cc1C)NC(=O)CNC(=O)c1cc(C(F)(F)F)ccc1NC(=O)NC	5
CCC[C@H](O)[C@H](CNCc1ccc(C)cc1C)NC(=O)CNC(=O)c1cc(C(F)(F)F)ccc1NC(=O)NCC	24
CCC[C@H](O)[C@H](CNCc1ccc(C)cc1C)NC(=O)CNC(=O)c1cc(C(F)(F)F)ccc1NC(=O)N1CCC1	4.3
CCC[C@H](O)[C@H](CNCc1ccc(C)cc1C)NC(=O)CNC(=O)c1cc(C(F)(F)F)ccc1NC(=O)N1CCCC1	5.2
CCC[C@H](O)[C@H](CNCc1ccc(C)cc1C)NC(=O)CNC(=O)c1cc(C(F)(F)F)ccc1NC(=O)N1CCOCC1	13
CCC[C@H](O)[C@H](CNCc1ccc(C)cc1C)NC(=O)CNC(=O)c1cc(C(F)(F)F)ccc1NC(=O)N1CCNCC1	10
CCC[C@H](O)[C@H](CNCc1ccc(C)cc1C)NC(=O)CNC(=O)c1cc(C(F)(F)F)ccc1NC(C)C	9
CCC[C@H](O)[C@H](CNCc1ccc(C)cc1C)NC(=O)CNC(=O)c1cc(C(F)(F)F)ccc1NC(C)(C)C	33
CCC[C@H](O)[C@H](CNCc1ccc(C)cc1C)NC(=O)CNC(=O)c1cc(C(F)(F)F)ccc1NCc1ccccc1	7.2
CCC[C@H](O)[C@H](CNCc1ccc(C)cc1C)NC(=O)CNc1n[nH]c2ccc(C(F)(F)F)cc12	74
CCC[C@H](O)[C@H](CNCc1ccc(C)cc1C)NC(=O)CC(=O)Nc1cccc(C(F)(F)F)c1	81
CCC[C@H](O)[C@H](CNCc1ccc(C)cc1C)NC(=O)CC(=O)Nc1cc(N)cc(C(F)(F)F)c1	14
CCC[C@H](O)[C@H](CNCc1ccc(C)cc1C)NC(=O)CC(=O)Nc1cc(NC)cc(C(F)(F)F)c1	23
CCC[C@H](O)[C@H](CNCc1ccc(C)cc1C)NC(=O)CC(=O)Nc1cc(NCC)cc(C(F)(F)F)c1	12

assay: Antagonist activity at CCR2 in mouse monocytes assessed as inhibition of MCP1-induced chemotaxis

SMILES	IC50 [nM]
CCC[C@H](O)[C@H](CNCc1ccc(C)cc1C)NC(=O)CNC(=O)c1cc(C(F)(F)F)ccc1NC(=O)NCC	4
